Data: publication PMC10698726 (Molecular Pharmaceutics, 2023)
Where two headings read alike, the source gives them in different places.

Key:
[1] = biological target: T1, OCT1 (Homo sapiens, UniProt O15245); settings: ref 1 (Tzvetkov et al., 2018, supplement); cited from earlier work
T1 sequence (O15245 1-554): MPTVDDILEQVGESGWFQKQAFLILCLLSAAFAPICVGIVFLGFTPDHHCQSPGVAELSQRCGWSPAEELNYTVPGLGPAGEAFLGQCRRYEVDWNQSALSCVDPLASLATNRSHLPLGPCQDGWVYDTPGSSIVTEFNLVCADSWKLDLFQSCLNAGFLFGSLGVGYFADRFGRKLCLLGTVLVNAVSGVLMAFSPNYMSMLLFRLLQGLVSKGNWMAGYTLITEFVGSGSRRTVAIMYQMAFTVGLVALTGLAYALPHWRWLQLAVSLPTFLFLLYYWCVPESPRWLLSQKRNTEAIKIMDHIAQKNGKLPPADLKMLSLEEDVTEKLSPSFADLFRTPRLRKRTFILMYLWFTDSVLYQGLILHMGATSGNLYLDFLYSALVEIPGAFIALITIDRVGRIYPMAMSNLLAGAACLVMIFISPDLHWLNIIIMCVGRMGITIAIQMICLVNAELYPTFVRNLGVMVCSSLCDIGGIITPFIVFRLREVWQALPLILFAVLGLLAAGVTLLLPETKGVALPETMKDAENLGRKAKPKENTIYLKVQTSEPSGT

[2] = biological target: T2, NET (Homo sapiens, UniProt P23975); assay: Concentration-dependent MPP+ uptake, NET-overexpressing HEK293 cells; type: in vitro ADME; settings: this study
T2 construct: expressed in transfected cells; host or cells: HEK293
T2 sequence (P23975 whole entry): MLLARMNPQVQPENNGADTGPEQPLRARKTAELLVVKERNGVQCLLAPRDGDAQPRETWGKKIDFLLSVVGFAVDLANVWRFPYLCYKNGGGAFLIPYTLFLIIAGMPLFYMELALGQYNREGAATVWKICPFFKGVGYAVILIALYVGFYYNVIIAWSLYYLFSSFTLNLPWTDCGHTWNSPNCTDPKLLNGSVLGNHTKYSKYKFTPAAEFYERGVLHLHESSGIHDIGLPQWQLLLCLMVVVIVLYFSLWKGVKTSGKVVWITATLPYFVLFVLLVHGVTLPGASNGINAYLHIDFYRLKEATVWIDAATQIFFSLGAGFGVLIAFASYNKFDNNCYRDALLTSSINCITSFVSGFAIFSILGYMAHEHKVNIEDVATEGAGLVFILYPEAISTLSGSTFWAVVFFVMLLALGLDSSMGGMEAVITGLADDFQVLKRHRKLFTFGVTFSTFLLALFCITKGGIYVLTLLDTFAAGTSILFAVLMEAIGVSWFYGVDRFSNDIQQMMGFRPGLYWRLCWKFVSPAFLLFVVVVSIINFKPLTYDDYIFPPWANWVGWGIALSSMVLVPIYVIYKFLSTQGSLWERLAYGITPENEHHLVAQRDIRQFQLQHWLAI
Experimental: (§1) Koepsell and Gorbulev (University of Würzburg, Germany).
(§2) Prior to inhibition studies, the used model substrates were validated in concentration-dependent uptake experiments if no literature data were available (Table S2 and Figures S2 and S3). Thereby, we ensured that the model substrate concentration used in the subsequent inhibition experiments was sufficiently below the Km value of its uptake kinetics. […] On the day of the experiment, the cells were washed once with prewarmed to 37 °C HBSS (Thermo Fisher Scientific, Darmstadt, Germany) supplemented with 10 mM HEPES and pH adjusted to 7.4 (Sigma-Aldrich)—hereafter termed HBSS+. For concentration-dependent experiments, the cells were incubated with increasing substrate concentrations for 2 min. Uptake was terminated by adding ice-cold HBSS+. Afterward, the cells were washed twice with ice-cold HBSS+, and cell lysis was done with 80% (v/v) acetonitrile (LGC Standards, Wesel, Germany) to which an internal standard for eventual LC–MS/MS analysis had been added. Intracellularly accumulated substrates were then quantified by LC–MS/MS analysis, and calibration was performed with known concentrations of the respective substances. All uptake data were normalized to the number of seeded cells by measuring the total protein content in radioimmunoprecipitation assay buffer-lysed cells in a bicinchoninic acid assay.[29]

[3] = biological target: T3, DAT (Homo sapiens, UniProt Q01959); assay: Concentration-dependent MPP+ uptake, DAT-overexpressing HEK293 cells; type: in vitro ADME; settings: this study
T3 construct: expressed in transfected cells; host or cells: HEK293
T3 sequence (Q01959 whole entry): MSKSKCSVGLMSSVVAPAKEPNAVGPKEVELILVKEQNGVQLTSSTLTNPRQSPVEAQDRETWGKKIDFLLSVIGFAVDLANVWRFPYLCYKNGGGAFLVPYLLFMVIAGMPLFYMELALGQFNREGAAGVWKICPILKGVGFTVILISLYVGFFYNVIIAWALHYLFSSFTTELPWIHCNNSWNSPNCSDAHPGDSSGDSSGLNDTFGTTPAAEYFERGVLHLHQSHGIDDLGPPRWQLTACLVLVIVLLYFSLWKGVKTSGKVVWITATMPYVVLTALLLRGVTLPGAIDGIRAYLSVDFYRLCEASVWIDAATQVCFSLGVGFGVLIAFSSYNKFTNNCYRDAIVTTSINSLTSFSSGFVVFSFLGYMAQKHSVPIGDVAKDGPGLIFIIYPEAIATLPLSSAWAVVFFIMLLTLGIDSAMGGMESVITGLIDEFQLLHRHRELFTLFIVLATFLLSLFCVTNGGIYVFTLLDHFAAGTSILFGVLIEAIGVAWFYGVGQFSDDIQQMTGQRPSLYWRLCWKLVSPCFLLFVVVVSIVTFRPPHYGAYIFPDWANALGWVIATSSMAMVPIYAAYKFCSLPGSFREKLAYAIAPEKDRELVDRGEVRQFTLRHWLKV
Experimental: as §1, §2

[4] = biological target: T4, SERT (Homo sapiens, UniProt P31645); assay: Concentration-dependent MPP+ uptake, SERT-overexpressing HEK293 cells; type: in vitro ADME; settings: this study
T4 construct: expressed in transfected cells; host or cells: HEK293
T4 sequence (P31645 whole entry): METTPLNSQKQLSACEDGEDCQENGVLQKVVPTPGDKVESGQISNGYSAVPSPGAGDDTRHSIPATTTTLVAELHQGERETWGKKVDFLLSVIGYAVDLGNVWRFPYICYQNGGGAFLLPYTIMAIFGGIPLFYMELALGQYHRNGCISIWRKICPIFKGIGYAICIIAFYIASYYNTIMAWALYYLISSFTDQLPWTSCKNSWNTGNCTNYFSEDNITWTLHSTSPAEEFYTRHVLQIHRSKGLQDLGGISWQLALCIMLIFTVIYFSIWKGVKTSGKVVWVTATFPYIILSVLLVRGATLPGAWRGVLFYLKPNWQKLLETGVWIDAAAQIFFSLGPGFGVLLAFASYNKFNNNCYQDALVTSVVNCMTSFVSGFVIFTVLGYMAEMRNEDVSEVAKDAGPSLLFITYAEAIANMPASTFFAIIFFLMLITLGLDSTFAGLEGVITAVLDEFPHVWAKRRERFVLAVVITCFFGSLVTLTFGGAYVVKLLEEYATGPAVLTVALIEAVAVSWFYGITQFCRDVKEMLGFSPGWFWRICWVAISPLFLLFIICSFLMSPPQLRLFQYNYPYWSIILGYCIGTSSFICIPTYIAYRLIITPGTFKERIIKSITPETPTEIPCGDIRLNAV
Experimental: as §1, §2

[5] = biological target: T1, OCT1; assay: Inhibition of model substrate uptake in OCT1-overexpressing HEK293 cells; type: cell-based; design: expressed in transfected cells; host or cells: HEK293; settings: human, OCT1-overexpressing HEK293 cells, OCT1, 20 μM inhibitor, 5 min
Experimental: as §1
Fluorescence quantification was performed in technical duplicates.

[6] = biological target: T5, OCT3 (Homo sapiens, UniProt O75751); assay: Inhibition of model substrate uptake in OCT3-overexpressing HEK293 cells; type: cell-based; settings: 20 μM inhibitor, 5 min
T5 construct: expressed in transfected cells; host or cells: HEK293
T5 sequence (O75751 1-556): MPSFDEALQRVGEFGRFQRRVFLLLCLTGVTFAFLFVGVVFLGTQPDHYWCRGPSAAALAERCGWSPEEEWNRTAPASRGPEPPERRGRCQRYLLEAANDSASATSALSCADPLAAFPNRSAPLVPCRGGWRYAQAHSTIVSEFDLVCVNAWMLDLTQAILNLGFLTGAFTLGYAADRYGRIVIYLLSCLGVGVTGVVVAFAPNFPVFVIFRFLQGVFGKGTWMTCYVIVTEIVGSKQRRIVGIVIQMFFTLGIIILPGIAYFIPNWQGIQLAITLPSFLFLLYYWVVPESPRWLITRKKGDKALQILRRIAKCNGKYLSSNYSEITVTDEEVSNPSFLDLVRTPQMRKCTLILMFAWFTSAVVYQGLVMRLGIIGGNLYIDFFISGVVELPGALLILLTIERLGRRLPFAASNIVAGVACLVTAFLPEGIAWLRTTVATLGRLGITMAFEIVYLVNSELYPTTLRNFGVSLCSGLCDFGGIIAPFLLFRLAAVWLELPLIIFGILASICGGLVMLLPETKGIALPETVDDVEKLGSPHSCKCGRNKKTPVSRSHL
In short: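 Transporter-overexpressing HEK293 cells were incubated 5 min in HBSS+ with 2 μM model substrate, with or without 20 μM inhibitor or increasing inhibitor concentrations. Uptake was read as ASP^+ fluorescence or by LC–MS/MS, with empty-vector uptake subtracted. IC50 came from a Hill fit of activity versus log concentration.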

[7] = biological target: T6, OCT2 (Homo sapiens, UniProt O15244); assay: Inhibition of model substrate uptake in OCT2-overexpressing HEK293 cells; settings: for IC50: IC50 [μM], OCT2, Table 1; for inhibition at 5 min, 20 μM: human, OCT2-overexpressing HEK293 cells
T6 sequence (O15244 1-555): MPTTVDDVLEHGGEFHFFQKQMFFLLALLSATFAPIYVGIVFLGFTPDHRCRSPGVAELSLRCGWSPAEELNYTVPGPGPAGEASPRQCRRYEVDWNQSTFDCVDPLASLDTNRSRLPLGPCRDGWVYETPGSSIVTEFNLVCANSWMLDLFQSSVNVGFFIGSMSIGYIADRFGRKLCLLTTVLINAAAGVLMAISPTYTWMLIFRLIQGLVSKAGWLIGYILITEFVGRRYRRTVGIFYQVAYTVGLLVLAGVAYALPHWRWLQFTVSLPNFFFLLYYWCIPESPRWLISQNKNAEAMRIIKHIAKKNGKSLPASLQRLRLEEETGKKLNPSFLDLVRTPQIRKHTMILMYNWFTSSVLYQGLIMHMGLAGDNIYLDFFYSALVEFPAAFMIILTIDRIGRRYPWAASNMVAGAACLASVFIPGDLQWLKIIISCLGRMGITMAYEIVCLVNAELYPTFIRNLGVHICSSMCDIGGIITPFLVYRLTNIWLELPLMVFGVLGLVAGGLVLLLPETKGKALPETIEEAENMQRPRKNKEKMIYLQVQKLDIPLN

[8] = oral administration, cited from earlier work
[9] = pH 7.4, probe (S,S)-ethambutol (2 μM), (S,S)-Ethambutol inhibition [%], 2 μM (S,S)-ethambutol
[10] = pH 7.4, probe ASP+ (2 μM), 2 μM ASP+, mean of three experiments, read-out: ASP+ inhibition [%]
[11] = pH 7.4, probe sumatriptan (2 μM), 2 μM sumatriptan, read-out: Sumatriptan inhibition [%]
[12] = HEK293, 5 min, read-out: (S)-Zolmitriptan inhibition [%], OCT3, 2 μM (S)-zolmitriptan
[13] = HEK293, 5 min, read-out: (S,S)-Ethambutol inhibition [%], OCT3, 2 μM (S,S)-ethambutol
[14] = HEK293, OCT3, 2 μM ASP+, read-out: ASP+ inhibition [%]

For CC(Cc1ccc(O)cc1)NCC(O)c1cc(O)cc(O)c1 (racemic) [rac Fenoterol, Fenoterol], the “Clint ± SEM” value [1] is listed as 33.0.
With C[n+]1ccc(-c2ccccc2)cc1 [MPP+, 1-methyl-4-phenylpyridinium] the “vmax ± SEM [pmol × mg Protein−1 × min−1]” value [2] was 381 pmol × mg Protein−1 × min−1, the Km ([2]; read-out: Km ± SEM) was 2500 nM and the “Clint ± SEM” value ([2]; vmax over Km) was 152. For the same compound, the “vmax ± SEM [pmol × mg Protein−1 × min−1]” value [3] was 2107 pmol × mg Protein−1 × min−1, the Km ([3]; read-out: Km ± SEM) was 20.1 µM and the “Clint ± SEM” value ([3]; vmax over Km) was 104. For the same compound, the “vmax ± SEM [pmol × mg Protein−1 × min−1]” value [4] was 627 pmol × mg Protein−1 × min−1, the Km ([4]; read-out: Km ± SEM) was 21.1 µM and the “Clint ± SEM” value ([4]; vmax over Km) was 29.7.
In the case of CN(C)CCC[C@@]1(c2ccc(F)cc2)OCc2cc(C#N)ccc21 [(S)-Citalopram], the inhibition at 5 min, 20 μM [5, 9] was 80.1%, the inhibition at 5 min, 20 μM [5, 10] was 37.2% and the inhibition at 5 min, 20 μM [5, 11] was 77.6%. For the same compound, the inhibition at 20 µM [6, 12] was 19.2%, the inhibition at 20 µM [6, 13] was 31.7% and the inhibition at 20 µM [6, 14] was 10.9%. For the same compound, the IC50 [7] was 10.7 µM, the inhibition at 5 min, 20 μM ([7]; pH 7.4, probe (S,S)-ethambutol (2 μM), (S,S)-Ethambutol inhibition [%], OCT2, 20 μM inhibitor, 2 μM (S,S)-ethambutol, 5 min) was -9.7% and the inhibition at 5 min, 20 μM ([7]; pH 7.4, probe ASP+ (2 μM), ASP+ inhibition [%], OCT2, 20 μM inhibitor, 2 μM ASP+, 5 min) was 68.6%. For the same compound, the inhibition at 5 min, 20 μM ([7]; pH 7.4, probe N-ethyllidocaine (2 μM), N-Ethyllidocaine inhibition [%], OCT2, 20 μM inhibitor, 2 μM N-ethyllidocaine, 5 min) was 26.5% and the “Imax” value ([8]; citalopram, multiple doses (40 mg, once daily for 21 d)) was 0.154 µM.
CCN1CCC[C@@H]1CNC(=O)c1cc(S(=O)(=O)CC)c(N)cc1OC [(R)-Amisulpride] gave an inhibition at 5 min, 20 μM [5, 9] of 57.7%, an inhibition at 5 min, 20 μM [5, 10] of 25.2% and an inhibition at 5 min, 20 μM [5, 11] of 29.3%. It also gave an inhibition at 20 µM [6, 12] of 56%, an inhibition at 20 µM [6, 13] of 81.3% and an inhibition at 20 µM [6, 14] of 37.9%. The IC50 [7] was 9.4 µM, the “(S,S)-Ethambutol inhibition [%]” value ([7]; OCT2, 20 μM inhibitor, 2 μM (S,S)-ethambutol, 5 min) was -5.7% and the “ASP+ inhibition [%]” value ([7]; OCT2, 20 μM inhibitor, 2 μM ASP+, 5 min) was 65.9%. The “N-Ethyllidocaine inhibition [%]” value ([7]; OCT2, 20 μM inhibitor, 2 μM N-ethyllidocaine, 5 min) was 11.3% and the “Imax” value ([8]; amisulpride, single dose (50 mg)) was 0.158 µM.
